This note sets out measurements from ChEMBL document CHEMBL5030511, “Targeting KRAS Mutant Cancers via Combination Treatment: Discovery of a 5-Fluoro-4-(3H)-quinazolinone Aryl Urea pan-RAF Kinase Inhibitor” (J Med Chem, 2021).

By IC50 is commonly meant the midpoint of a concentration-inhibition curve. By Ki is commonly meant the equilibrium dissociation constant of an inhibitor or competing ligand from its target. A lower Ki goes with tighter binding. In general, Papp A→B refers to the apparent permeability from the apical to the basolateral side of a cell layer. As usually defined, the logD is lipophilicity at a set pH, counting ionised and neutral species. Low readings indicate a more hydrophilic compound, high ones a more lipophilic compound. As usually defined, the clearance is the volume of plasma or blood freed of the substance per unit of time. The low end stands for inefficient removal, the high end for efficient removal. Usually half-life stands for the time needed for the level to fall by half in the phase considered. Read a low half-life as rapid decline. One may read the bioavailability as the share of a dose that reaches the circulation, judged against a reference dose that is usually intravenous.

≈ marks a conversion by molar mass, not a printed value. Calls of active or inactive are those of the source.

Data set [1] concerns A549. The data set is described as follows: Antiproliferative activity against human A549 cells harboring KRAS mutant assessed as reduction in cell viability incubated for 24 hrs by Click-iT EdU cell proliferation imaging assay. The class given is functional, cell-based. The settings on record: A549, 24 h.
Data set [2] has as its system A-375. Briefly: Antiproliferative activity against human A-375 cells harboring BRAF mutant assessed as reduction in cell viability incubated for 24 hrs by Click-iT EdU cell proliferation imaging assay. The class given is functional, cell-based. The settings on record: A-375, 24 h.
Data set [3] concerns A549. The data set is described as follows: Synergistic antiproliferative activity against human A549 cells harboring KRAS mutant assessed as reduction in cell viability incubated for 24 hrs in presence of 100 nM cobimetinib by Click-iT EdU cell proliferation imaging assay. The class given is functional, cell-based. The settings on record: A549, 24 h.
For data set [4], the target named is Serine/threonine-protein kinase B-raf (Homo sapiens, UniProt P15056).
Description: Inhibition of BRAF (unknown origin) (416 to 766) inactive MAP2K1 as substrate preincubated for 30 mins measured after 90 mins by DELFIA assay
Data set [5] addresses RAF proto-oncogene serine/threonine-protein kinase (Homo sapiens, UniProt P04049, Y340D/Y341D).
Data set [6] can be described thus: Apparent permeability from apical to basolateral side in dog MDCK cells. The class given is ADME, cell-based, Canis lupus familiaris.
The nature of data set [7]: Lipophilicity, log D of the compound at pH 7.4. The data set is classed as physicochemical. Particulars: buffer.
Data set [8] relates to HCT-116. The data set is described as follows: Antitumour activity against human HCT-116 cells harboring KRAS mutant xenografted in NCR nude mouse assessed as tumor growth inhibition at 10 mg/kg, po bid for 21 days. The settings on record: time 21.0 day. The class given is functional, organism-based. On the technique in general: Xenograft models place foreign cells or tissue in a host animal.

Data set [9] is described as follows: Clearance in mouse at 1 mg/kg, iv. The data set is classed as ADME, organism-based. Particulars: in vivo.
For data set [10], the system named is Mus musculus. The data set is described as follows: Induction of stabilization of CRAF phosphorylation in human HCT-116 cells xenografted NCR nude mouse assessed as decrease in pERK level at 10 mg/kg, po bid for 4 days and measured after 2 to 8 hrs. Particulars: time 4.0 day. The class given is functional, organism-based.
In data set [11] the test system is Mus musculus. Briefly: Induction of stabilization of CRAF phosphorylation in human HCT-116 cells xenografted NCR nude mouse assessed as decrease in pMEK level at 10 mg/kg, po bid for 4 days and measured after 2 to 8 hrs. The data set is classed as functional, organism-based. The settings on record: time 4.0 day.
Data set [12] can be described thus: Toxicity in NCR nude mouse xenografted with human HCT-116 cells harboring KRAS mutant assessed as body weight loss at 10 mg/kg, po bid for 21 days. The data set is classed as organism-based. Particulars: in vivo, 504 h, time 21 day.
For data set [13], the system named is A-375. Briefly: Additive antiproliferative activity against human A-375 cells harboring BRAF mutant assessed as inhibition of cell growth in presence of Cobimetinib by EdU staining based assay. The data set is classed as functional.
The subject of data set [14] is Mus musculus. The data set is described as follows: Induction of CRAF phosphorylation in human HCT-116 cells xenografted NCR nude mouse at 10 mg/kg, po bid for 4 days in presence of Cobimetinib and measured after 2 to 8 hrs. Particulars: time 4.0 day. The class given is functional, organism-based.
In data set [15] the test system is A549. Briefly: Synergistic antiproliferative activity against human A549 cells harboring KRAS mutant assessed as inhibition of cell growth in presence of Cobimetinib by EdU staining based assay. Particulars: dose 0.02-5 µM. The class given is functional.
The test system of data set [16] is Mus musculus. Briefly: Induction of stabilization of CRAF phosphorylation in human HCT-116 cells xenografted NCR nude mouse assessed as decrease in pERK level at 10 mg/kg, po bid for 4 days in presence of Cobimetinib and measured after 8 hrs. The class given is functional, organism-based. Particulars: time 4.0 day.
Data set [17] in a line: Half life in mouse at 1 mg/kg, iv. The class given is ADME, organism-based. Particulars: in vivo.
The nature of data set [18]: Volume of distribution at steady state in mouse at 1 mg/kg, iv. The class given is ADME, organism-based. The settings on record: in vivo, read-out: Vdss.
Data set [19] can be described thus: Kinetic solubility of the compound in pH 7.4 PBS buffer. The data set is classed as physicochemical. Particulars: read-out: Kinetic_solubility.
Data set [20] is described as follows: Oral bioavailability in mouse using amorphous spray-dried dispersion at 30 mg/kg. The data set is classed as ADME, organism-based. Particulars: in vivo.
The subject of data set [21] is HCT-116. Briefly: Synergistic antiproliferative activity against human HCT-116 cells harboring KRAS mutant assessed as inhibition of cell growth at 0.003 to 0.93 uM in presence of Cobimetinib by EdU staining based assay. The class given is functional. Particulars: dose 0.003-0.93 µM.
Data set [22] deals with HCT-116. The data set is described as follows: Antitumour activity against human HCT-116 cells harboring KRAS mutant xenografted in NCR nude mouse assessed as tumor growth inhibition at 10 mg/kg, po bid for 21 days in presence of 5 mg/kg Cobimetinib. The settings on record: HCT-116, po, 504 h, time 21 day, read-out: TGI. The data set is classed as functional.
Data set [23] is described as follows: Toxicity in NCR nude mouse xenografted with human HCT-116 cells harboring KRAS mutant assessed as body weight loss at 10 mg/kg, po bid for 21 days in presence of 5 mg/kg Cobimetinib. Particulars: in vivo, 504 h, time 21 day. The data set is classed as organism-based.
The nature of data set [24]: Oral bioavailability in mouse using PEG 400 at 5 mg/kg. The class given is ADME, organism-based. The settings on record: in vivo.
Data set [25] deals with Mus musculus. The data set is described as follows: Induction of stabilization of CRAF phosphorylation in human HCT-116 cells xenografted NCR nude mouse assessed as decrease in pRSK level at 10 mg/kg, po bid for 4 days in presence of Cobimetinib and measured after 8 hrs. The class given is functional, organism-based. The settings on record: time 4.0 day.
For data set [26], the system named is Mus musculus. The data set is described as follows: Induction of stabilization of CRAF phosphorylation in human HCT-116 cells xenografted NCR nude mouse assessed as decrease in pRSK level at 10 mg/kg, po bid for 4 days and measured after 2 to 8 hrs. The class given is functional, organism-based. The settings on record: time 4.0 day.
Data set [27] concerns Mus musculus. Briefly: Inhibition of pERK in human HCT-116 cells xenografted NCR nude mouse at 5 mg/kg, po qd for 4 days and measured after 2 to 8 hrs. The class given is functional, organism-based. Particulars: time 4.0 day.
Data set [28] deals with HCT-116. Briefly: Antitumour activity against human HCT-116 cells harboring KRAS mutant xenografted in NCR nude mouse assessed as tumor growth inhibition at 5 mg/kg, po qd for 21 days. The data set is classed as functional, organism-based. Particulars: time 21.0 day.
A short description of data set [29]: Oral bioavailability in mouse using amorphous spray-dried dispersion at 25 mg/kg. The data set is classed as ADME, organism-based. The settings on record: in vivo.
The nature of data set [30]: Oral bioavailability in mouse using methylcellulose-tween at 5 mg/kg. The settings on record: in vivo. The class given is ADME, organism-based.

Serine/threonine-protein kinase B-raf, sequence (P15056 whole entry): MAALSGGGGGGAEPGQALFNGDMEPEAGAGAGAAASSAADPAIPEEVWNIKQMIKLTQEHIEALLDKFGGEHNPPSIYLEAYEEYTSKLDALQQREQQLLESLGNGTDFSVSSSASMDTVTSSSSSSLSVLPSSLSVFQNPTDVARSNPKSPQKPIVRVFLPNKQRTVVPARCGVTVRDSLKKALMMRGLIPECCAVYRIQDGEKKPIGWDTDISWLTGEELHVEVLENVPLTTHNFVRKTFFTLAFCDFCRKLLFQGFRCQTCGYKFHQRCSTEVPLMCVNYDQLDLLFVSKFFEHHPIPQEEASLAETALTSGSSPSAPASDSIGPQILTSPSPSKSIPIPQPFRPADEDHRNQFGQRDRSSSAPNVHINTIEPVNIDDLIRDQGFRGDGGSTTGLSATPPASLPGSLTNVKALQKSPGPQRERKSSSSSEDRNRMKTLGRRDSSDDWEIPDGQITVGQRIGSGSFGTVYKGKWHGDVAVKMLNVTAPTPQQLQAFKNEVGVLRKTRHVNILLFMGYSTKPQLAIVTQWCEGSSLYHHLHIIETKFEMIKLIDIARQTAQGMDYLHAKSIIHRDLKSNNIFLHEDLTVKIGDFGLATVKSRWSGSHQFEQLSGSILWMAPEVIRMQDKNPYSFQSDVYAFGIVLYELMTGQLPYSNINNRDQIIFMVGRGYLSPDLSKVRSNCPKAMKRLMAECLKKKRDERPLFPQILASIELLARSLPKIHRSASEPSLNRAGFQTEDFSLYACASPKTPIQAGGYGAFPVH
RAF proto-oncogene serine/threonine-protein kinase, sequence (P04049 whole entry Y340D/Y341D): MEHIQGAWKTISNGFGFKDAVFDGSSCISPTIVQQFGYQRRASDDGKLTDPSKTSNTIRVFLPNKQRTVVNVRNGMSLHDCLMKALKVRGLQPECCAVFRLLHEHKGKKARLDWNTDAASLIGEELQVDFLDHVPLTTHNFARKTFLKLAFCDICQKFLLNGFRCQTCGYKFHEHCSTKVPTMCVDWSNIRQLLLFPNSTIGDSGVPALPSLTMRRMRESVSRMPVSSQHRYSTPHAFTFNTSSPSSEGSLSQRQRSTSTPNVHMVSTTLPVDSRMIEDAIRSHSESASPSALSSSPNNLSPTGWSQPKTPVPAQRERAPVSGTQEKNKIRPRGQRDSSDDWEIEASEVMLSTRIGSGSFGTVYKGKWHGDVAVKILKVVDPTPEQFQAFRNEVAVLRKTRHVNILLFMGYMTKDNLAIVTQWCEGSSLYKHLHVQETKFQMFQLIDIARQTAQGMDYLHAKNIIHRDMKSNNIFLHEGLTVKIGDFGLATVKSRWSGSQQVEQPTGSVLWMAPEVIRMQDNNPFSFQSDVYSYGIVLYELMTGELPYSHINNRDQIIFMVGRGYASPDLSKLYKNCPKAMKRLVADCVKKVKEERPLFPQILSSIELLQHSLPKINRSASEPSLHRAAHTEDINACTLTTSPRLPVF

For the compound `Cc1cc(F)c(NC(=O)NCCC(C)(C)C)cc1NC(=O)N(C)c1cc(N)ncn1`, the values for the IC50 in the data set with A549 [1], in the data set with A-375 [2] and with A549 [3] were 1400 nM, 85.3 nM and 104 nM, respectively. The inhibition constant (Ki) in data set [4] was less than 0.08 nM; in data set [5] it was less than 0.05 nM.
Consider `Cc1cc(F)c(NC(=O)NCCC(C)(C)C)cc1Nc1ccc2ncn(C)c(=O)c2c1F`, for which the Papp A→B in [6] was 13 ×10⁻⁶ cm/s. In addition, in [7], the logD was determined as 4.47. The result with HCT-116 [8], in the data set on Mus musculus [10], with Mus musculus [11], in the data set with A-375 [13], in the data set on Mus musculus [14] and with Mus musculus [16] was Active. The outcome with HCT-116 [21], in the data set on Mus musculus [25] and with Mus musculus [26] was Active. This compound also yielded a clearance in data set [9] of 27 mL/min/kg. The values for the 50% inhibitory concentration (IC50) with A549 [1], in the data set on A-375 [2] and in the data set with A549 [3] were 2900 nM, 112 nM and 169 nM, respectively. The Activity in [12] is 10%; with A549 [15], “Dose-Dependent Effect”; in data set [23] it was “Non-Toxic”. In data set [17], this compound had a half-life of 48 min. The Vd in data set [18] came out at 1.4 L/kg. Besides, in data set [19], the solubility kinetic is 3 µM (≈ 1.33 µg/mL). The bioavailability in [20] was 60%; in [24], 26%. Besides, the inhibition in vivo at 10 mg/kg in the data set with HCT-116 [22] worked out at 110%. Moreover, the inhibition constant (Ki) in data set [4] was less than 0.08 nM; in [5], 0.061 nM.
As to `COc1n[nH]c2ncc(NC(=O)c3cc(NC(=O)NCCC(C)(C)C)c(F)cc3C)cc12`, the concentration for half-maximal inhibition (IC50) in the data set with A549 [1] turned out to be 986 nM; with A-375 [2] it was 47.4 nM; in the data set on A549 [3], 158 nM. Moreover, in data set [5], the Ki was less than 0.05 nM.
For the compound `Cc1cc(F)c(NC(=O)NCCC(C)(C)C)cc1NC(=O)c1cccc2c(N)ncnc12`, the IC50 is 528 nM in the data set on A549 [1], 8 nM with A-375 [2] and 96.8 nM with A549 [3]. For the same compound, the values for the inhibitory constant (Ki) in data set [4] and in data set [5] were less than 0.08 nM and less than 0.05 nM, respectively.
On to `CNc1cc(-c2cccnc2Nc2cc(NC(=O)NCCC(C)(C)C)c(F)cc2C)ncn1`, for which the concentration for half-maximal inhibition (IC50) was 2400 nM with A549 [1], 92.6 nM in the data set on A-375 [2] and 208 nM with A549 [3]. The inhibition constant (Ki) in [4] was less than 0.08 nM; in data set [5], 0.06 nM.
With `O=C(c1ccc(F)c(F)c1Nc1ccc(I)cc1F)N1CC(O)([C@@H]2CCCCN2)C1`, the inhibition entry with Mus musculus [27] was “Active”. Further, in the data set on HCT-116 [28], the result was Active.
For `Cc1cc(F)c(NC(=O)NCCC(C)(C)C)cc1Nc1ccc2ncn(C)c(=O)c2c1`, in data set [6], the apparent permeability from apical to basolateral (Papp A→B) was 3.6 ×10⁻⁶ cm/s. For the same compound, the logD in [7] was 4.47. In data set [9], this compound yielded a clearance of 50 mL/min/kg. Further, the IC50 was 2700 nM with A549 [1], 405 nM in the data set with A-375 [2] and 253 nM in the data set on A549 [3]. Further, the results for the bioavailability in data set [29] and in data set [30] were 2% and 0%, respectively. For the same compound, the half-life in [17] is 30 min. In addition, the Vd in [18] was found to be 0.94 L/kg. For the same compound, in data set [19], the solubility kinetic was less than 1 µM. Further, the results for the Ki in [4] and in data set [5] were less than 0.08 nM and less than 0.05 nM, respectively.
